Earlier results on one molecule are cited in patent US20220340870A1, “FUNCTIONAL NEUROMODULATORY ASSEMBLOIDS” (The Board of Trustees of the Leland Stanford Junior …, priority 2019, published 2022).

pKd: −log10 of the molar value.

For this data set, the target named is Smo (Homo sapiens, UniProt Q99835). To be noted: interacting with the Smo heptahelical domain.
Chain of Smo (Q99835 28-787): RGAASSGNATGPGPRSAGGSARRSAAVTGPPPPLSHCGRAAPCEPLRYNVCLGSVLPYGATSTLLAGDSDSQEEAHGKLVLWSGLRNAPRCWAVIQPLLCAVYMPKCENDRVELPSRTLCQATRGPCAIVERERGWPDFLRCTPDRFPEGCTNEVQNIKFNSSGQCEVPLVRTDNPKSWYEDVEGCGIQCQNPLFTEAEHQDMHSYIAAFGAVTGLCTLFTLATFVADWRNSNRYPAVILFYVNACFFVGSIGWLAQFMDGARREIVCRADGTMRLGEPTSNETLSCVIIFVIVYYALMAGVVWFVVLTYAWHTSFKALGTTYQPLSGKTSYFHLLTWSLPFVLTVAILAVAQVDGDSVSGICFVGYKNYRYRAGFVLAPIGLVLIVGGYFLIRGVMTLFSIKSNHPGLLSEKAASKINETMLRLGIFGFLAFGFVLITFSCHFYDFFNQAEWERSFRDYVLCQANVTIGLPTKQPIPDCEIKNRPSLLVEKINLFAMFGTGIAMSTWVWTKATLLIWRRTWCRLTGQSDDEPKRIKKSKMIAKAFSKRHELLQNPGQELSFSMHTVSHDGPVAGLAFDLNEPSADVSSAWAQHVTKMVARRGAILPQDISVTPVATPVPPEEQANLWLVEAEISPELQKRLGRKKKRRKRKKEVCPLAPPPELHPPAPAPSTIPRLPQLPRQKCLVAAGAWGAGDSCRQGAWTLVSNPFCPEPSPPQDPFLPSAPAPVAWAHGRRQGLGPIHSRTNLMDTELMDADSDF

As a reminder, the pKd is −log10 of the Kd, conventionally taken in molar units. Turning to `CNC1CCC(N(Cc2cccc(-c3ccncc3)c2)C(=O)c2sc3ccccc3c2Cl)CC1` (stereo not shown) [SAG], the pKd is 7.23.
